Assays:
Experiment in all cases: Cell survival rate, cell experiment in vitro (MTT)
[1] = tested on: paclitaxel-resistant human ovarian cancer cell line (A2780/T)
Description: (§1) Assay of cell experiment in vitro: tumor cells at logarithmic growth phase were collected, resuspended in a DMEM complete culture-medium (containing 10% fetal bovine serum, 100 U/ml penicillin, 100 μg/ml streptomycin) and a final concentration was 4×10^4 cells/ml. In a 96-well cell culture plate, 200 μl above cell suspension was added into each well (8×10^3 cells/well), and cultured for 48 h in a cell incubator at 37° C. filled with 5% CO2. The DMEM complete culture-medium was respectively replaced with 200 μL antitumor drug with different concentrations. The final concentrations of the drugs were set no less than six groups. The DMEM complete culture-medium was as the negative control group. Each concentration was set 4 wells and the experiment was repeated for 3 times. 20 μl 5 mg/mL MTT solution was added into each well after the cells were cultured for 72 h in a cell incubator at 37° C. filled with 5% CO2. The supernatant was discarded after it was further cultured for 4 h in a cell incubator. 150 μl DMSO was added into each well, shaked for 10 min. An OD was determined at 490 nm by a continuous spectrum multifunctional microplate reader (Tecan infinite M 200 TECAN, Switzerland). The cell survival rate was calculated by the following formula: (the cell survival rate (%)=ODdrug/ODcontrol×100%). Cell survival rate (%)=OD490(sample)/OD490(control)×100%;
(§2) Wherein OD490(sample) is the OD of the experimental group, OD490(control) is the OD of the blank control group.

[2] = tested on: human ovarian cancer cell line (A2780)
Description: as §1, §2

[3] = tested on: paclitaxel-resistant human pancreatic cancer cell line (BxPC-3/T); assay type: cell-based
Description: The new recovery BxPC-3 cells were cultured for two generations or three generations under conventional conditions to make the cells grow stably.

## CC(=O)O[C@H]1C(=O)[C@@]2(C)[C@H]([C@H](OC(=O)c3ccccc3)[C@]3(O)C[C@H](OC(=O)[C@H](O)[C@@H](NC(=O)c4ccccc4)c4ccccc4)C(C)=C1C3(C)C)[C@]1(OC(C)=O)CO[C@@H]1C[C@@H]2O [Taxol, paclitaxel]
[1]; C (μM): Taxol + Rg5 1.5625 + 9.375, Taxol 1.5625, Blank Rg5 9.375, Abraxane 1.5625
  Cell Viability: 0.856
[1]; C (μM): Taxol + Rg5 6.25 + 37.5, Taxol 6.25, Blank Rg5 37.5, Abraxane 6.25
  Cell Viability: 0.654
[1]; C (μM): Taxol + Rg5 12.5 + 75, Taxol 12.5, Blank Rg5 75, Abraxane 12.5
  Cell Viability: 0.393
[1]; C (μM): Taxol + Rg5 400 + 2400, Taxol 400, Blank Rg5 2400, Abraxane 400
  Cell Viability: 0.139
[2]; C (μM): Taxol + Rg5 0.001953 + 0.011719, Taxol 0.001953, Blank Rg5 0.011719, Abraxane 0.001953
  Cell Viability: 0.866
[2]; C (μM): Taxol + Rg5 0.007813 + 0.046875, Taxol 0.007813, Blank Rg5 0.046875, Abraxane 0.007813
  Cell Viability: 0.818
[2]; C (μM): Taxol + Rg5 0.015625 + 0.09375, Taxol 0.015625, Blank Rg5 0.09375, Abraxane 0.015625
  Cell Viability: 0.673
[2]; C (μM): Taxol + Rg5 0.03125 + 0.1875, Taxol 0.03125, Blank Rg5 0.1875, Abraxane 0.03125
  Cell Viability: 0.443
[2]; C (μM): Taxol + Rg5 0.25 + 1.5, Taxol 0.25, Blank Rg5 1.5, Abraxane 0.25
  Cell Viability: 0.204
[2]; C (μM): Taxol + Rg5 0.5 + 3, Taxol 0.5, Blank Rg5 3, Abraxane 0.5
  Cell Viability: 0.185
[2]; C (μM): Taxol + Rg5 1 + 6, Taxol 1, Blank Rg5 6, Abraxane 1
  Cell Viability: 0.133
[3]; C (μM): Taxol + Rg5 1.5625 + 9.375, Taxol 1.5625, Blank Rg5 9.375
  Cell Viability: 0.85
[3]; C (μM): Taxol + Rg5 12.5 + 75, Taxol 12.5, Blank Rg5 75
  Cell Viability: 0.639
[3]; C (μM): Taxol + Rg5 25 + 150, Taxol 25, Blank Rg5 150
  Cell Viability: 0.454
[3]; C (μM): Taxol + Rg5 50 + 300, Taxol 50, Blank Rg5 300
  Cell Viability: 0.272
[3]; C (μM): Taxol + Rg5 200 + 1200, Taxol 200, Blank Rg5 1200
  Cell Viability: 0.15
[3]; C (μM): Taxol + Rg5 400 + 2400, Taxol 400, Blank Rg5 2400
  Cell Viability: 0.134
